Test: Comparative analysis of solutions at 15 mg/ml in water at pH 7.4 (phosphate buffer)
Assay type: physicochemical

Appearance of solution: milky solution
SMILES: Cc1c(C)c2c(c(C)c1OC(=O)CCC(=O)O)CC[C@@](C)(CCC[C@H](C)CCC[C@H](C)CCCC(C)C)O2 [α-tocopherol succinate]

— US7683024B2, “Polyaminoacids functionalized by alpha tocopherol and uses thereof, particular for therapeutic applications” (Flamel Technologies, priority 2002, dated 2010)
